Assay [1] deals with HeLa cells. Briefly: LC3B positive autophagosomes, immunofluorescent staining. It counts as cell-based. The conditions noted are these: 10 µM, three days. The method, then:
(§1) Cells were fixed with PBS containing 0.5% of para-formaldehyde for 15 min at room temperature. After three washing steps in PBS, cells were permeabilized with PBS containing 0.3% of Triton X-100 (Sigma) for 1 h at room temperature. After washing with PBS three times, cells were incubated overnight with the anti-LC3B antibody in PBS with 1% bovine serum albumin (Sigma) at 4°C. After three washing steps in PBS, cells were incubated with the fluorescent secondary antibody for 90 min at 4°C in PBS with 1% bovine serum albumin. They were then incubated with […] DAPI (Thermofisher) in PBS for 15 min. After washing with PBS, cells were rinsed once in water prior to mounting in the FluorSave reagent (Millipore).
(§2) Depending of these transitory environmental conditions, autophagy can either promote survival or apoptosis ([Degtyarev et al., 2008]). PIK/AKT pathway inhibition has been reported to increase cell autophagy ([Palmieri et al., 2017]). More specifically, PIP4K2C has been described as a down-regulator of autophagy ([Sharma et al., 2019]).

For assay [2], the system named is PSC. Described as above. It counts as cell-based, mouse. The conditions noted are these: 10 µM, three days. The method, then: as §1, §2
The target of assay [3] is RIOK2. On the set-up: method as in Varin et al., 2015. Conditions: ref Varin et al., 2015; cited from earlier work.

These results are taken from paper PMC8371461 (Frontiers in Pharmacology, 2021).

`NC(=O)c1nc(Nc2ccccc2)sc1NC(=O)C1CCCCC1` [UNC-3230]: the “number of LC3B-positive autophagosomes” value in assay [1] and in assay [2] was “increased” each time.
As for `FC(F)(F)c1ccccc1-c1nc(NCc2cccs2)c2ccccc2n1` [NIH-12848], in assay [1], the “number of LC3B-positive autophagosomes” value is given as “confirmed in HeLa cells”.
As a reminder, the Kd is the concentration at which binding is half-saturated. `O=C(Cc1ccc(-c2ccccc2)cc1)Nc1ccccn1` [Diphenpyramide]: the Kd in assay [3] is 160 nM.
